# Measured values: ChEMBL document CHEMBL2202959, “Essential structure of opioid κ receptor agonist nalfurafine for binding to the κ receptor 3: synthesis of decahydro(iminoethano)phenanthrene derivatives with an oxygen functionality at the 3-position and their pharmacologies” (Bioorg Med Chem Lett, 2012)
# Experiments:
# [1] = Selectivity ratio of Ki for delta opioid receptor in mouse whole brain membranes without cerebellum to Ki for kappa opioid receptor in guinea pig cerebellum membranes; type: cell membranes
# [2] = target: Delta-type opioid receptor (Mus musculus, UniProt P32300); assay: Displacement of [3H]DPDPE from delta opioid receptor in mouse whole brain membranes without cerebellum; type: cell membranes, Membrane
# [3] = Selectivity ratio of Ki for mu opioid receptor in mouse whole brain membranes without cerebellum to Ki for kappa opioid receptor in guinea pig cerebellum membranes; type: cell membranes
# Mu-type opioid receptor = Mu-type opioid receptor (Mus musculus, UniProt P42866); assay: Displacement of [3H]DAMGO from mu opioid receptor in mouse whole brain membranes without cerebellum; type: cell membranes, Membrane
# [4] = target: Kappa-type opioid receptor (Cavia porcellus, UniProt P41144); assay: Displacement of [3H]U-69,593 from kappa opioid receptor in guinea pig cerebellum membranes; type: cell membranes, Membrane
# Chain of Kappa-type opioid receptor (P41144 whole entry): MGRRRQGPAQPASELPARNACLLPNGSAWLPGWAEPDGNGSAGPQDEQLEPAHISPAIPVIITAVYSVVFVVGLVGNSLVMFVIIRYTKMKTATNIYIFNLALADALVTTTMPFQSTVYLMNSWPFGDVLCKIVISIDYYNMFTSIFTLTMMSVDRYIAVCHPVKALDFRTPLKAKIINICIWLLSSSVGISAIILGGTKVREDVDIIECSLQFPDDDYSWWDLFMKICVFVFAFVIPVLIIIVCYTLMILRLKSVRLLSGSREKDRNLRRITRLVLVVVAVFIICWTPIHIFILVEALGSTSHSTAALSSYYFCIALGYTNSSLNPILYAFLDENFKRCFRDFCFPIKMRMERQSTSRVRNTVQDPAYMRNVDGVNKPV
# Chain of Delta-type opioid receptor (P32300 whole entry): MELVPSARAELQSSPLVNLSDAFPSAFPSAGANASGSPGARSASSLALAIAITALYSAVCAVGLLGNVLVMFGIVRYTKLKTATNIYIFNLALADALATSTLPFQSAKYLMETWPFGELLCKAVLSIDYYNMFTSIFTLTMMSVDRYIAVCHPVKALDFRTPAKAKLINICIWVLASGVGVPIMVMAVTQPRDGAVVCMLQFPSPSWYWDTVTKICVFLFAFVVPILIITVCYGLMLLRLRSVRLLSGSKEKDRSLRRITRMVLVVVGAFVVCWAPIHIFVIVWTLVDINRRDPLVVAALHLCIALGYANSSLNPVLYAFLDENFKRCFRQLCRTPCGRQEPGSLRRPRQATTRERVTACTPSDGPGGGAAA
# Chain of Mu-type opioid receptor (P42866 whole entry): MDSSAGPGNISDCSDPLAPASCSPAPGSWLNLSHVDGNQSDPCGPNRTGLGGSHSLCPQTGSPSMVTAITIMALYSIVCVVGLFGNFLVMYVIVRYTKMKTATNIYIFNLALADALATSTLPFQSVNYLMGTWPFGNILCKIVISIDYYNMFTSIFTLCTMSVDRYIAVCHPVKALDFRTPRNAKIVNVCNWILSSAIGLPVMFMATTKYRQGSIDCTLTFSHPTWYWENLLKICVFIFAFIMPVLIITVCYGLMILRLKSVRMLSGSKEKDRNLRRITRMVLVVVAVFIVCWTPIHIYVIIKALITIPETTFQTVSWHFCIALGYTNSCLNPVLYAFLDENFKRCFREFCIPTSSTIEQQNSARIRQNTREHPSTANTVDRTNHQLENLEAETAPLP
SMILES,Ratio Ki [1],Ki [2],Ratio Ki [3],Ki (Mu-type opioid receptor),Ki [4]
CN(C(=O)/C=C/c1ccoc1)[C@H]1CC[C@@]2(O)[C@H]3Cc4cccc5c4[C@@]2(CCN3CC2CC2)[C@H]1O5,146,49.5 nM,26,8.88 nM,0.34 nM
CN(C(=O)/C=C/c1ccoc1)[C@@H]1CC[C@@]2(O)[C@H]3CC4=C(C[C@H](O)CC4)[C@@]2(CCN3CC2CC2)C1,65,47.5 nM,79,57.6 nM,0.733 nM
CN(C(=O)/C=C/c1ccoc1)[C@H]1CC[C@@]2(O)[C@H]3Cc4ccc(O)cc4[C@@]2(CCN3CC2CC2)C1,3.8,0.623 nM,2,0.324 nM,0.163 nM
CN(C(=O)/C=C/c1ccoc1)[C@@H]1CC[C@@]2(O)[C@H]3CC4=C(CC(=O)CC4)[C@@]2(CCN3CC2CC2)C1,5.1,74.2 nM,3.5,51.1 nM,14.5 nM
CN(C(=O)/C=C/c1ccoc1)[C@H]1CC[C@H]2[C@H]3CC4=C(CCCC4)[C@@]2(CCN3CC2CC2)C1,14,32.9 nM,3.8,8.62 nM,2.28 nM
CN(C(=O)/C=C/c1ccoc1)[C@H]1CC[C@@]2(O)[C@H]3CC4=C(C[C@@H](O)CC4)[C@@]2(CCN3CC2CC2)C1,19,8.66 nM,12,5.49 nM,0.451 nM
CN(C(=O)/C=C/c1ccoc1)[C@H]1CC[C@@]2(O)[C@H]3Cc4ccccc4[C@@]2(CCN3CC2CC2)C1,19,5.65 nM,22,6.52 nM,0.303 nM
CN(C(=O)/C=C/c1ccoc1)[C@H]1CC[C@@]2(O)[C@H]3CC4=C(CC(=O)CC4)[C@@]2(CCN3CC2CC2)C1,20,44.5 nM,12,26 nM,2.23 nM
CN(C(=O)/C=C/c1ccoc1)[C@H]1CC[C@@]2(O)[C@H]3CC4=C(C[C@H](O)CC4)[C@@]2(CCN3CC2CC2)C1,7.7,8.45 nM,4.8,5.26 nM,1.1 nM
CN(C(=O)/C=C/c1ccoc1)[C@H]1CC[C@@]2(O)[C@H]3CC4=C(CCCC4)[C@@]2(CCN3CC2CC2)C1,13,26.4 nM,71,147 nM,2.06 nM
CN(C(=O)/C=C/c1ccoc1)[C@@H]1CC[C@@]2(O)[C@H]3CC4=C(C[C@@H](O)CC4)[C@@]2(CCN3CC2CC2)C1,328,233 nM,49,34.7 nM,0.711 nM
CN(C(=O)/C=C/c1ccoc1)[C@@H]1CC[C@@]2(O)[C@H]3Cc4ccccc4[C@@]2(CCN3CC2CC2)C1,95,32.4 nM,36,12.3 nM,0.34 nM
